Like-named read-outs stand apart in the source and are kept apart here.
What was measured:
[1] = biological target: T1, recombinant T. brucei GlcNAc-PI de-N-acetylase (GST-TbGPI12) (Trypanosoma brucei, UniProt Q8I8A5); assay: Mass spectrometry based activity assay, recombinant GST-TbGPI12; format: biochemical
Description: Inhibition assays were performed in 100 μL final volume, with 1% v/v DMSO with or without inhibitor. […]. Enriched glycolipids were analysed by liquid chromatography coupled to an electrospray tandem mass spectrometer (LC–MS/MS). Samples (40 μL) were injected on to a 10 × 1 mm C18 column (ACE, 5 μM) and eluted using a binary gradient of 5–80% propan-1-ol in 5 mM NH4OAc (Dionex Ultimate 3000). The gradient consisted of 2 min 0% B, 2–4 min 0–100% B, 4–8 min 100%, 8–9 min 100–0% B, 9–10 min 0% B where buffer A consisted of 5% propan-1-ol, 5 mM NH4OAc and buffer B 80% propan-1-ol, 5 mM NH4OAc. The glycolipids were analysed on an electrospray triple quadrapole mass spectrometer (Micromass Quattro Ultima) in multiple reaction monitoring mode. The turnover of the substrate GlcNAc-IPC18 (m/z 715 > 223) to GlcN-IPC18 (m/z 672 > 223) was used to calculate the percentage of substrate conversion to product in a given sample.[6] Inhibitor IC50 values were calculated using a four-parameter fit of eight-point potency curves derived from three independent experiments, and are quoted with standard deviation. […]
Figure 2 T. brucei GlcNAc-PI de-N-acetylase inhibitors. The activity of the recombinant enzyme against the synthetic substrate D-glucosamine-α-(1-6)-D-myo-inositol-1-octadecyl phosphate was measured using a mass spectrometry based assay (A) Fragments were screened at 1 mM in duplicate. […]

[2] = biological target: T1, recombinant T. brucei GlcNAc-PI de-N-acetylase (GST-TbGPI12); parameters: method as in PMID 22222041; settings: previously reported glucocyclitol-phospholipid substrate analogue; cited from earlier work
[3] = tested on: T. brucei GPI pathway (cell-free system); assay: Trypanosome cell-free system assay, [3H]-mannose incorporation into GPI intermediates (HPTLC, fluorography); settings: GlcNAc-IPC18 10 μM; GDP-[3H]-mannose; tested at 0, 100, 300, 1000 μM
Description: Trypanosome cell-free system assays, where the formation of GPI precursors is monitored by following the incorporation of [^3H]-mannose were analysed using high-performance liquid chromatography and fluorography as described previously.[13]
Priming the cell-free system with GlcAc-IPC18 in the presence of GDP-[^3H]-mannose stimulates the production of radiolabelled mannosylated GPI intermediates that can be separated by high performance thin-layer chromatography and visualised by fluorography.
(A) The T. brucei cell-free system was incubated with GlcNAc-PI (10 μM) in the presence of 0, 100, 300, or 1000 μM of 1 and 0.5 μCi of GDP-[^3H]-mannose to stimulate the production of radiolabelled mannosylated GPI intermediates. Glycolipid products were extracted, separated by high-performance thin-layer chromatography, and visualised by fluorography. DPM–dolichol-phosphate-mannose, M1–Man1GlcN-IPC18, M2–Man2GlcN-IPC18, M3–Man3GlcN-IPC18, A′–EtNPMan3GlcN-IPC18. (B) Inhibition of the turnover of GlcNAc-IPC18 (10 μM) by the presence of 1 measured in the T. brucei cell-free system in the LC–MS/MS assay.

[4] = biological target: T. brucei de-N-acetylase (cell-free system) (Trypanosoma brucei, UniProt Q8I8A5); assay: Mass spectrometry based activity assay, trypanosome cell-free system; format: biochemical; settings: for inhibition at 1000 µM: read-out: Inhibition at 1 mM (%); for ligand efficiency: from IC50 in cell-free system
Chain of T. brucei de-N-acetylase (cell-free system) (Q8I8A5 entry or part of it): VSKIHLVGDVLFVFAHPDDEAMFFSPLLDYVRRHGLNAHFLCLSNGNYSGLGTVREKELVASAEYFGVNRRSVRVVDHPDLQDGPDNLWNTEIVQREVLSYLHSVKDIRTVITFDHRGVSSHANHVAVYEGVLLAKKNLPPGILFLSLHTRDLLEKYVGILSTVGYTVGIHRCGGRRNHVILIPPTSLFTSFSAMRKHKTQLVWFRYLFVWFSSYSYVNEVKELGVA
Description: Inhibition assays were performed in 100 μL final volume, with 1% v/v DMSO with or without inhibitor. […] Enriched glycolipids were analysed by liquid chromatography coupled to an electrospray tandem mass spectrometer (LC–MS/MS). Samples (40 μL) were injected on to a 10 × 1 mm C18 column (ACE, 5 μM) and eluted using a binary gradient of 5–80% propan-1-ol in 5 mM NH4OAc (Dionex Ultimate 3000). The gradient consisted of 2 min 0% B, 2–4 min 0–100% B, 4–8 min 100%, 8–9 min 100–0% B, 9–10 min 0% B where buffer A consisted of 5% propan-1-ol, 5 mM NH4OAc and buffer B 80% propan-1-ol, 5 mM NH4OAc. The glycolipids were analysed on an electrospray triple quadrapole mass spectrometer (Micromass Quattro Ultima) in multiple reaction monitoring mode. […] Inhibitor IC50 values were calculated using a four-parameter fit of eight-point potency curves derived from three independent experiments, and are quoted with standard deviation. […]

[5] = tested on: bloodstream form T. brucei; parameters: method as in PMID 986688, PMID 17126803; settings: cited from earlier work
[6] = 1 mM, cell-free system, Table 1, commercially available analogues of 1
[7] = 1 mM, fragment library screen, Table S1, footnote: cell-free system

T1 sequence (Q8I8A5 entry or part of it): as above

SMILES: CCCCCCCCCCCCCCCCCCOP(=O)(O)O[C@@H]1CCCC[C@H]1O[C@@H]1O[C@H](CO)[C@@H](O)[C@H](O)[C@H]1CC(=O)NO [1R,2R-1-O-[2-C-(carboxymethyl N-hydroxyamide)-2-deoxy-β-D-glucopyranosyl]-cyclohexanediol 2-(n-octadecylphosphate), reference compound]
- ligand efficiency ([1]; from the previously reported IC50 of ref 13): −0.13 kcal mol^−1 per non-hydrogen atom
- IC50 [2]: 19 ± 0.5 µM

SMILES: O=C(NO)c1ccccc1O [compound 1, salicylic hydroxamic acid]
- concentration that prevented priming of the cell-free system with GlcNAc-IPC18 [3]: > 300 µM
- inhibition at 1000 µM [4]: 97 ± 2%
- toxicity in vivo to bloodstream form T. brucei [5]: toxic in vivo
- IC50 [1]: 63 ± 4 µM

SMILES: O=C(O)c1ccccc1O [compound 2]
- inhibition at 1000 µM [4]: 25 ± 1%

SMILES: O=C(NO)c1ccccc1 [compound 3]
- inhibition at 1000 µM [4, 6]: -6 ± 14%

SMILES: O=C(NO)c1ccccc1Br [compound 4]
- inhibition at 1000 µM [4, 6]: -4 ± 15%

SMILES: Nc1ccccc1C(=O)NO [compound 5]
- inhibition at 1000 µM [4, 6]: -5 ± 2%

SMILES: O=C(NO)c1ccc(Br)cc1O [compound 6]
- inhibition at 1000 µM [4, 6]: 86 ± 2%

SMILES: O=C(NO)c1ccc(Br)cc1 [compound 7]
- inhibition at 1000 µM [4, 6]: 9.6 ± 15%

SMILES: O=C(NO)c1cc(NC(=O)C2CCCCC2)ccc1O [compound 20, 5-(Cyclohexanecarboxamido)-N,2-dihydroxybenzamide]
- ligand efficiency [4]: −0.30 kcal mol^−1 per non-hydrogen atom
- inhibition at 1000 µM [4]: 99 ± 1.6%
- melting point: 229 to 230 °C

SMILES: O=C(Nc1ccc(O)c(C(=O)NO)c1)c1ccccc1 [compound 21, 5-Benzamido-N,2-dihydroxybenzamide]
- ligand efficiency [4]: −0.29 kcal mol^−1 per non-hydrogen atom
- inhibition at 1000 µM [4]: 96 ± 0.4%
- melting point: 211 °C

SMILES: Cc1ccc(C(=O)Nc2ccc(O)c(C(=O)NO)c2)cc1 [compound 22, N,2-Dihydroxy-5-(4-methylbenzamido)benzamide]
- inhibition at 1000 µM [4]: 62 ± 24%
- melting point: 209 °C

SMILES: CCCCCCCCCCCCCCCCCC(=O)Nc1ccc(O)c(C(=O)NO)c1 [compound 23, N,2-Dihydroxy-5-stearamidobenzamide]
- inhibition at 1000 µM [4]: 25 ± 14%
- melting point: 185 to 187 °C

SMILES: CC(=O)N1CCC(C(=O)Nc2ccc(O)c(C(=O)NO)c2)CC1 [compound 24, 1-Acetyl-N-(4-hydroxy-3-(hydroxycarbamoyl)phenyl)piperidine-4-carboxamide]
- inhibition at 1000 µM [4]: 40 ± 17%
- melting point: 211 to 212 °C

SMILES: O=C(Nc1ccc(O)c(C(=O)NO)c1)c1ccc(-c2ccccc2)cc1 [compound 25, N-(4-Hydroxy-3-(hydroxycarbamoyl)phenyl)-[1,1'-biphenyl]-4-carboxamide]
- inhibition at 1000 µM [4]: 75 ± 7%
- melting point: 216 °C

SMILES: O=C(NO)c1cc(NC(=O)C2CCOCC2)ccc1O [compound 26, N-(4-Hydroxy-3-(hydroxycarbamoyl)phenyl)tetrahydro-2H-pyran-4-carboxamide]
- inhibition at 1000 µM [4]: 56 ± 8.3%
- melting point: 209 °C

SMILES: O=C(Nc1ccc(O)c(C(=O)NO)c1)c1ccc2c(c1)OCO2 [compound 27, N-(4-Hydroxy-3-(hydroxycarbamoyl)phenyl)benzo[d][1,3]dioxole-5-carboxamide]
- inhibition at 1000 µM [4]: 86 ± 11%
- melting point: 209 °C

SMILES: COc1ccc(NC(=O)NO)cc1 [compound 503]
- inhibition at 1000 µM [4, 7]: 53 ± 2%

SMILES: O=C(CCCOc1ccc(Cl)cc1Cl)NO [compound 508]
- inhibition at 1000 µM [4, 7]: 67 ± 20%

SMILES: O=C(COc1ccc(Cl)cc1Cl)NO [compound 509]
- inhibition at 1000 µM [4]: 62 ± 0.3%

SMILES: O=C(NO)C1CCN(c2ncc(C(F)(F)F)cc2Cl)CC1 [compound 513]
- inhibition at 1000 µM [4, 7]: 54 ± 4%

SMILES: O=C(CCc1nc(-c2ccc(Cl)cc2)no1)NO [compound 514]
- inhibition at 1000 µM [4, 7]: 54 ± 9%

Reference: paper PMC3991331, “Fragment screening reveals salicylic hydroxamic acid as an inhibitor of Trypanosoma brucei GPI GlcNAc-PI de-N-acetylase” (Carbohydrate Research, 2014)
